Results: US9232796B2, “Herbicidal compositions comprising 4-amino-3-chloro-5-fluoro-6-(4-chloro-2-fluoro-3-methoxyphenyl) pyridine-2-carboxylic acid or a derivative thereof and acetyl-CoA carboxylase (ACCase) inhibitors” (DOW AGROSCIENCES LLC, priority 2012, dated 2016)

Experiments:
APESV = test: Example IV postemergence foliar-applied, greenhouse, cereal crops weeds; assay type: in vivo, Apera spica-venti (L.) Beauv.
Experimental: (§1) Seeds of the desired test plant species were planted in Sun Gro MetroMix® 306 planting mixture, which typically has a pH of 6.0 to 6.8 and an organic matter content of about 30 percent, in plastic pots with a surface area of 103.2 square centimeters (cm^2). […] The plants were grown for 7-36 days in a greenhouse with an approximate 14 hour photoperiod which was maintained at about 18° C. during the day and about 17° C. during the night. Nutrients and water were added on a regular basis and supplemental lighting was provided with overhead metal halide 1000-Watt lamps as necessary. The plants were employed for testing when they reached the second or third true leaf stage.
(§2) Treatments consisted of the benzyl ester of 4-amino-3-chloro-5-fluoro-6-(4-chloro-2-fluoro-3-methoxy-phenyl)pyridine-2-carboxylic acid (Compound A), formulated as an SC, a second cereal herbicide alone and then both in combination.
(§3) Other herbicidal components were applied on an active ingredient basis and included acetyl-CoA carboxylase (ACCase)-inhibiting herbicides clodinafop-propargyl, fenoxaprop-P-ethyl, pinoxaden and tralkoxydim.
(§4) Measured aliquots of benzyl ester of 4-amino-3-chloro-5-fluoro-6-(4-chloro-2-fluoro-3-methoxy-phenyl)pyridine-2-carboxylic acid (Compound A) were placed in 25 milliliter (mL) glass vials and diluted in a volume of 1.25% (v/v) Agri-Dex® crop oil concentrate to obtain stock solutions. Compound requirements are based upon a 12 mL application volume at a rate of 187 liters per hectare (L/ha). […] Formulated compounds were applied to the plant material with an overhead Mandel track sprayer equipped with an 8002E nozzle calibrated to deliver 187 L/ha over an application area of 0.503 square meters (m^2) at a spray height of 18 inches (46 cm) above average plant canopy. Control plants were sprayed in the same manner with the solvent blank.
(§5) The treated plants and control plants were placed in a greenhouse as described above and watered by sub-irrigation to prevent wash-off of the test compounds. After 20-22 days, the condition of the test plants as compared with that of the control plants was determined visually and scored on a scale of 0 to 100 percent where 0 corresponds to no injury and 100 corresponds to complete kill.
(§6) Colby's equation was used to determine the herbicidal effects expected from the mixtures (Colby, S. R. 1967. Calculation of the synergistic and antagonistic response of herbicide combinations. Weeds 15:20-22.).
(§7) The following equation was used to calculate the expected activity of mixtures containing two active ingredients, A and B: Expected=A+B−(A×B/100)

KCHSC = test: as above; assay type: in vivo, Kochia scoparia (L.) Schrad.
Experimental: as §1, §2, §3, §4, §5, §6, §7

PHAMI = test: as above; assay type: in vivo, Phalaris minor Retz.
Experimental: as §1, §2, §3, §4, §5, §6, §7

LEFCH = test: Example V (second) postemergence foliar-applied ternary mixtures, greenhouse, direct seeded rice weeds; assay type: in vivo, Leptochloa chinensis (L.) Nees
Experimental: (§8) The treated plants and control plants were placed in a greenhouse as described above and watered by sub-irrigation to prevent wash-off of the test compounds. After approximately 3 weeks, the condition of the test plants as compared with that of the untreated plants was determined visually and scored on a scale of 0 to 100 percent where 0 corresponds to no injury or growth inhibition and 100 corresponds to complete kill.
as §6
(§9) The following equation was used to calculate the expected activity of mixtures containing three active ingredients, A, B, and C: Expected=A+B+C−((A×B+A×C+B×C)/100)+(A×B×C/10000)

IPOHE = test: as above; assay type: in vivo, Ipomoea hederacea Jacq.; details: 28 gai/ha
Experimental: as §8, §6, §9

CYPES = test: as above; assay type: in vivo, Cyperus esculentus L.; details: 28 gai/ha
Experimental: as §8, §6, §9

ECHCG = test: as above; assay type: in vivo, Echinochloa crus-galli (L.) Beauv.; details: 105 gae/ha
Source text: Seeds or nutlets of the desired test plant species were planted in a soil matrix prepared by mixing a sandy loam or loam soil (e.g., 32 percent silt, 23 percent clay, and 45 percent sand, with a pH of about 6.5 and an organic matter content of about 1.9 percent) and calcareous grit in an 80 to 20 ratio. The soil matrix was contained in plastic pots with a volume of 1 quart and a surface area of 83.6 square centimeters (cm^2). When required to ensure good germination and healthy plants, a fungicide treatment and/or other chemical or physical treatment was applied. The plants were grown for 8-22 days in a greenhouse with an approximate 14 hr. photoperiod which was maintained at about 29° C. during the day and 26° C. during the night. Nutrients (Peters Excel® 15-5-15 5-Ca 2-Mg and iron chelate) were applied in the irrigation solution as needed and water was added on a regular basis. Supplemental lighting was provided with overhead metal halide 1000-Watt lamps as necessary. The plants were employed for testing when they reached the first through fourth true leaf stage.
Treatments consisted of the benzyl ester of 4-amino-3-chloro-5-fluoro-6-(4-chloro-2-fluoro-3-methoxy-phenyl)pyridine-2-carboxylic acid (Compound A), formulated as an SC (suspension concentrate), an ACCase inhibitor, and a third herbicidal component, each applied alone and in ternary combination. Forms of compound A were applied on an acid equivalent basis.
The ACCase inhibitor component was applied on an active ingredient basis and included cyhalofop-R-butyl formulated as Clincher® SF, fenoxaprop-p-ethyl formulated as RiceStar® HT, and profoxydim formulated as Aura® 20EC. Other herbicidal components were applied on an active ingredient or acid equivalent basis depending on the compound and included penoxsulam formulated as Grasp® SC, bentazon sodium formulated as Basagran®, triclopyr […] (TEA) salt formulated as Grandstand® R, bispyribac sodium formulated as Regiment® 80WP, imazamox ammonium formulated as Beyond®, benzobicyclon, quinclorac formulated as Facet® 75DF, glyphosate dimethylammonium (DMA) salt formulated as Durango® DMA, glufosinate ammonium formulated as Ignite® 280, fentrazamide formulated as an emulsifiable concentrate (EC), propyrisulfuron formulated as Zeta One®, and indanofan (technical grade material).
Treatment requirements were calculated based upon the rates being tested, the concentration of active ingredient or acid equivalent in the formulation, and a 12 mL application volume at a rate of 187 L/ha.
For treatments comprised of formulated compounds, measured amounts of compounds were placed individually in 25 mL glass vials and diluted in a volume of 1.25% (v/v) Agri-Dex® crop oil concentrate to obtain 12× stock solutions. […] Application solutions were prepared by adding an appropriate amount of each stock solution (e.g., 1 mL) and diluted to the appropriate final concentrations with the addition of 9 mL of an aqueous mixture of 1.25% (v/v) crop oil concentrate so that the final spray solutions contained 1.25% (v/v) crop oil concentrate.
As required, additional water and/or 97:3 v/v acetone/DMSO was added to individual application solutions so that the final acetone and DMSO concentrations of the application solutions being compared were 8.1% and 0.25%, respectively.
All stock solutions and applications solutions were visually inspected for compound compatibility prior to application. Spray solutions were applied to the plant material with an overhead Mandel track sprayer equipped with a 8002E nozzles calibrated to deliver 187 L/ha over an application area of 0.503 m^2 at a spray height of 18 inches (46 cm) above average plant canopy height. Control plants were sprayed in the same manner with the solvent blank.
The treated plants and control plants were placed in a greenhouse as described above and watered by sub-irrigation to prevent wash-off of the test compounds. […]

CCOC(=O)[C@@H](C)Oc1ccc(Oc2nc3ccc(Cl)cc3o2)cc1 [Fenoxaprop-P-ethyl, ethyl(2R)-2-[4-[(6-chloro-2-benzoxazolyl)oxy]phenoxy]propanoate]
Visual Weed Control (%) - 21 DAA APESV Obs (APESV; Fenoxaprop-P-ethyl 23 gai/ha): 50%
Visual Weed Control (%) - 21 DAA APESV Obs (APESV; Fenoxaprop-P-ethyl 46 gai/ha): 83%
Visual Weed Control (%) - 21 DAA KCHSC Obs (KCHSC; Fenoxaprop-P-ethyl 23 gai/ha): 0%
Visual Weed Control (%) - 21 DAA KCHSC Obs (KCHSC; Fenoxaprop-P-ethyl 46 gai/ha): 0%
Visual Weed Control (%) - 21 DAA PHAMI Obs (PHAMI; Fenoxaprop-P-ethyl 23 gai/ha): 10%
Visual Weed Control (%) - 21 DAA PHAMI Obs (PHAMI; Fenoxaprop-P-ethyl 46 gai/ha): 45%

CCC1(CC2(c3cccc(Cl)c3)CO2)C(=O)c2ccccc2C1=O (stereo not drawn) [Indanofan]
Visual Weed Control (%) - 22 DAA LEFCH Obs (LEFCH; 72.5 gai/ha): 30%
Visual Weed Control (%) - 22 DAA LEFCH Obs (LEFCH; 145 gai/ha): 38%

COc1cc(OC)nc(Oc2cccc(Oc3nc(OC)cc(OC)n3)c2C(=O)O)n1 [Bispyribac sodium]
Visual Weed Control (%) - 21 DAA IPOHE Obs (IPOHE): 60%
Visual Weed Control (%) - 21 DAA CYPES Obs (CYPES): 20%

CNC.O=C(O)CNCP(=O)(O)O [Glyphosate DMA]
Visual Weed Control (%) - 21 DAA ECHCG Obs (ECHCG): 23%
Visual Weed Control (%) - 21 DAA LEFCH Obs (LEFCH; 420 gai/ha): 45%
